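Dose response: 5 concentrations. Exposure: 48 h. Format: 96-well plates. Endpoint: linear interpolation; highest concentration if not reached. Here, GI50 denotes the concentration required for 50% inhibition of growth.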 Active and inactive are the calls of the source. Rule as the data show it: active = GI50 up to about 1.1 µM and inactive = higher.
Key:
Experiment in all cases: growth of human tumour cells (NCI), 48 h
T47D = system: T47D
XF498 = system: XF498
SNB-78 = system: SNB-78
KM-20L2 = system: KM-20L2
LXFL 529 = system: LXFL 529
DMS-273 = system: DMS-273
DLD-1 = system: DLD-1
M19-MEL = system: M19-MEL

O=C1C2=Cc3ccccc3OC2(O)Oc2cc(O)cc(O)c21 (stereo unspecified)
GI50 (T47D): > 100 µM (inactive)

Cc1csc(NCc2ccc(Cl)cc2)n1
GI50 (T47D): 28.9 µM (inactive)

N#C/C(=C\c1ccc(O)c(O)c1)C(N)=S [TYRPHOSTIN 47]
GI50 (XF498): > 100 µM (inactive)
GI50 (SNB-78): > 100 µM (inactive)
GI50 (KM-20L2): > 70.5 µM (inactive)
GI50 (LXFL 529): 72.8 µM (inactive)
GI50 (DMS-273): > 79.1 µM (inactive)
GI50 (DLD-1): 64.6 µM (inactive)
GI50 (M19-MEL): > 100 µM (inactive)

COc1ccc(/N=N/c2c(C)c(C#N)c(=S)n(C3OC(CO)C(O)C(O)C3O)c2C)cc1 (stereo unspecified)
GI50 (T47D): 28.6 µM (inactive)

COc1ccc2c(c1)[n+]([O-])c(-c1ccccc1)c(N)[n+]2[O-]
GI50 (XF498): 35 µM (inactive)
GI50 (SNB-78): 44.8 µM (inactive)
GI50 (KM-20L2): 46 µM (inactive)
GI50 (LXFL 529): 30.5 µM (inactive)
GI50 (DMS-273): 34.4 µM (inactive)
GI50 (DLD-1): 45.6 µM (inactive)
GI50 (M19-MEL): 39.2 µM (inactive)

C#CCOC(=O)c1ccccc1OC(C)=O
GI50 (T47D): > 100 µM (inactive)

CC1(C)[C@@H]2CC[C@]1(C)[C@H](OC(=O)/C=C/c1ccccc1)C2
GI50 (T47D): 15.9 µM (inactive)

Cc1ccc([N+](=O)[O-])cc1S(=O)(=O)Nc1ccc(C2=NN(S(=O)(=O)c3cc([N+](=O)[O-])ccc3C)C(c3cccs3)C2)cc1 (stereo unspecified)
GI50 (T47D): 21.5 µM (inactive)

Nc1nc2c(=O)c3ccccc3sc2s1
GI50 (T47D): 69 µM (inactive)

Sc1nnc(SCc2ccccc2Cl)c2nc[nH]c12
GI50 (T47D): > 100 µM (inactive)

O=C(NNC(=O)c1cc(/C=C/c2cccc([N+](=O)[O-])c2)nc(S)n1)Nc1ccc(Cl)cc1
GI50 (XF498): 28.6 µM (inactive)
GI50 (SNB-78): > 100 µM (inactive)
GI50 (KM-20L2): 45.9 µM (inactive)
GI50 (LXFL 529): 42.3 µM (inactive)
GI50 (DMS-273): > 100 µM (inactive)
GI50 (DLD-1): 20.2 µM (inactive)
GI50 (M19-MEL): 69 µM (inactive)

N#CCCN(CCCN(CCCN(C(=O)Nc1ccccc1)c1ccccc1)C(=O)Nc1ccccc1)C(=O)Nc1ccccc1
GI50 (T47D): > 8.75 µM (inactive)

CCCn1c(=O)c(N2CCN(c3ccccc3)CC2)nc2sc3ccccc3c21
GI50 (T47D): > 100 µM (inactive)

Brc1ccc(C[N+]23CN4CN(CN(C4)C2)C3)cc1
GI50 (SNB-78): 83.2 µM (inactive)
GI50 (KM-20L2): 31.1 µM (inactive)
GI50 (DMS-273): 22.5 µM (inactive)
GI50 (DLD-1): > 10 µM (inactive)
GI50 (M19-MEL): 41.8 µM (inactive)

C/C(=N\NC(=O)c1ccccc1O)c1c(O)cc(C)oc1=O
GI50 (SNB-78): > 100 µM (inactive)
GI50 (KM-20L2): > 100 µM (inactive)
GI50 (LXFL 529): 85.5 µM (inactive)
GI50 (DLD-1): 49.8 µM (inactive)
GI50 (M19-MEL): 83.4 µM (inactive)

CC1OC(n2cc(I)c(=O)[nH]c2=O)C=CC1=O (stereo unspecified)
GI50 (XF498): 19.2 µM (inactive)
GI50 (SNB-78): 14.7 µM (inactive)
GI50 (KM-20L2): 17 µM (inactive)
GI50 (LXFL 529): 10.8 µM (inactive)
GI50 (DMS-273): 17.2 µM (inactive)
GI50 (DLD-1): 13.2 µM (inactive)
GI50 (M19-MEL): 16.4 µM (inactive)

O=C(/C=C/c1ccc(OCc2cccc(Cl)c2)cc1)NO
GI50 (T47D): 7.52 µM (inactive)

O=C1Nc2ccccc2/C1=C\c1c(Cl)[nH]c2ccccc12
GI50 (T47D): 24 µM (inactive)

FC(F)(Sc1ccccc1)c1nc2ccccc2o1
GI50 (T47D): > 100 µM (inactive)

CC(=O)O[C@H]1CC[C@@]2(C)C(=CC[C@@H]3[C@@H]2CC[C@](C)(c2nnc(C)o2)[C@H]3CC#N)C1
GI50 (T47D): > 100 µM (inactive)

NC(=O)NNC/C(Cl)=C(\Cl)C(=O)O
GI50 (XF498): > 100 µM (inactive)
GI50 (SNB-78): > 100 µM (inactive)
GI50 (KM-20L2): > 100 µM (inactive)
GI50 (LXFL 529): > 100 µM (inactive)
GI50 (DMS-273): > 100 µM (inactive)
GI50 (DLD-1): > 100 µM (inactive)
GI50 (M19-MEL): > 100 µM (inactive)

COc1ccc(N[C@H]([C@@H](c2ccccc2)[S+]([O-])c2ccc(C)cc2)C(F)(F)F)cc1 (stereo partly specified)
GI50 (T47D): > 100 µM (inactive)

COC(=O)CC(CC(=O)C(=O)OC)C(=O)OC (stereo unspecified)
GI50 (SNB-78): > 100 µM (inactive)
GI50 (KM-20L2): > 100 µM (inactive)
GI50 (LXFL 529): > 100 µM (inactive)
GI50 (DLD-1): > 100 µM (inactive)

COC12COC(=O)C1C(c1ccc3c(c1)OCO3)c1cc3c(cc1O2)OCO3 (stereo unspecified)
GI50 (T47D): 24.2 µM (inactive)

Cn1c(=O)cc(Nc2ccc(N)cc2)[nH]c1=O
GI50 (T47D): > 100 µM (inactive)

CC1CC(c2ccccc2)Nc2nc3ccccc3n21 (stereo unspecified)
GI50 (T47D): > 100 µM (inactive)

COc1c2cc([N+](=O)[O-])cc1CN(C(=O)C(F)(F)F)CCOCCN(C(=O)C(F)(F)F)C2
GI50 (T47D): > 100 µM (inactive)

COC(=O)C/N=C1\NC(=S)N(Cc2ccc(OC)cc2)C12CCCC2
GI50 (T47D): > 100 µM (inactive)

CCOC(OCC)N1C(=O)C2(C(OCC)OCC)CC3C(OC(=O)N3N)c3cccc1c32 (stereo unspecified)
GI50 (T47D): > 100 µM (inactive)

CC(=O)c1cc(CC2Cc3cc4c(cc3C2=O)CCC4)cc2c1CCC2 (stereo unspecified)
GI50 (T47D): 15.1 µM (inactive)

CC1/C=C/C=C/CC/C=C/C=C/C=C/C=C/C(OC2OC(C)C(O)C(N)C2O)CC2OC(CC(O)C(O)CCC(O)CC(O)CC(O)CC(=O)OC(C)C(C)C1O)CC(O)C2C(=O)O (stereo unspecified)
GI50 (T47D): 57.1 µM (inactive)

COC(=O)[C@H](Cc1ccccc1)NC(=O)N1CCCN(C(=O)N[C@@H](Cc2ccccc2)C(=O)OC)CCCN(C(=O)N[C@@H](Cc2ccccc2)C(=O)OC)CCC1
GI50 (T47D): 17.3 µM (inactive)

O=NN1CCN=C1c1ccc([N+](=O)[O-])cc1
GI50 (XF498): > 100 µM (inactive)
GI50 (SNB-78): > 100 µM (inactive)
GI50 (KM-20L2): > 100 µM (inactive)
GI50 (LXFL 529): > 100 µM (inactive)
GI50 (DMS-273): > 100 µM (inactive)
GI50 (DLD-1): > 100 µM (inactive)
GI50 (M19-MEL): > 100 µM (inactive)

CCOC(=O)c1ccc(C(=O)/C(C(C)=O)=C2\CCCN2C)n1C
GI50 (T47D): 15.8 µM (inactive)

Source: ChEMBL document CHEMBL1201862, “PubChem BioAssay data set” (2004)
